Measured values taken from US9723843B2, “Family of silver (I) periodate compounds having broad microbial properties” (Innovotech, Inc., priority 2011, dated 2017).
Like-named read-outs stand apart in the source and are kept apart here.

What was measured:
[1] = room temperature
Description: The purpose of this study was to determine whether or not Ag5IO6 interacts with methanol, tetrahydrofuran, acetone, and acetonitrile.
• i. […] of Ag5IO6 was placed in a vial, 2 mL of the solvent was added, and the vial was placed in a TAM III for an isothermal run at room temperature for >24 h with solvent only as the reference. The heat flow was measured. • ii. After the run was complete, the solvents were allowed to flash off and the solids collected were submitted to XRD. • iii. Samples exposed following essentially the same method for only 18 h were also submitted for XRD.

[2] = Description: The purpose of this study was to determine the stability of Ag5IO6 at various temperatures independent of hydrolytic or photolytic effects, in order to obtain an understanding of its storage stability, and also to perform differential scanning calorimetry and thermal gravimetry.
• i. Ag5IO6 was made fresh, a sample was submitted for XRD analysis (Day 0), and then additional samples were placed at room temperature, 40° C., 54° C., and 90° C. for 14 and 28 days in amber glass vials placed in CO2 impermeable foil pouches with desiccant packs. After the allotted time period, the samples were submitted for XRD. • Samples were submitted for DSC/TGA to measure thermal stability.

[3] = remark: listed apart in the source
Description: The purpose of this study was to develop a basic understanding of the solubility (and stability) of Ag5IO6 in pure water and 0.9% (physiological saline), following OECD Method (105)—flask.
• 1. About 0.1 g Ag5IO6 was weighed into 6 100 mL volumetric flasks. • 2. The flasks were filled to volume with ddH2O or 0.9% saline. • 3. The vessels were tightly stoppered and then agitated using a shaker in an incubator at 30° C. for approximately 24 hours. • 4. After 24 hours, two of the vessels (one per solvent) were equilibrated for 24 h at the test temperature (20° C., using a water bath) with occasional shaking. • 5. Pictures were obtained of the solutions and solid present. • 6. The contents of the vessels were then centrifuged at the test temperature (20° C.). • 7. The concentration of the test substance in the clear aqueous phase was determined by atomic absorption spectroscopy. • 8. The pH of the solution was measured using a pH meter. • 9. Triplicate samples of the solution were analyzed by UV-Vis spectroscopy. • 10. A sample of the solid material was collected by vacuum filtration, allowed to dry on the filter for 15 minutes, then transferred to a watch glass and placed in the fume hood to dry overnight. The sample was then packaged in a glass vial covered in aluminum foil and submitted for XRD analysis. • 11. The procedures of steps 4-10 were repeated for the second and third flask, after an initial equilibration at 30° C. for two and three days, respectively. Results

[4] = greater than 1.3 million lux hours exposure
Text: The purpose of this study was to assess the photostability of Ag5IO6 in accordance with the FDA's 1997 recommendations regarding the photostability testing of new products.
The samples were then submitted for XRD.

[Ag+].[Ag+].[Ag+].[Ag+].[Ag+].[O-][I+]([O-])([O-])([O-])([O-])[O-] [Ag5IO6, pentasilver hexaoxoiodate]
onset of significant reaction ([1]; THF): ~56 h
onset of significant reaction ([1]; acetonitrile (slower onset)): ~56 h
time blended with solvents without substantial reaction ([1]; all solvents (methanol, tetrahydrofuran, acetone, acetonitrile)): < 18 h
onset of significant reaction ([1]; methanol): ~33 h
composition after storage (XRD) ([2]; 90° C., 14 and 28 days): 100 % Ag5IO6
grain size ([2]; 90° C., Day 14): 62 Å
grain size ([2]; 90° C., Day 28): 94 Å
grain size ([2]; Day 0): 14 Å
temperature up to which stable ([2]; powder): > 400 °C
time stable at 90° C. ([2]; powder, 90° C.): > 28 days
temperature up to which stable ([2]; powder, listed as Ag5IO6 powder): up to 440 °C
shelf life at room temperature ([2]; suggested by stability at 54° C. for 28 days): > 2 years
solubility in saline ([3]; 0.9% saline, 20° C., calculated assuming that all Ag in solution is due to Ag5IO6): 0.61 ± 0.05 µg/mL
solubility in ddH2O ([3]; ddH2O, 20° C., calculated assuming that all Ag in solution is due to Ag5IO6): 24.41 ± 0.87 µg/mL
solid material converted to Ag metal (XRD) ([3]; in ddH2O): 0.1%
solid material remained as Ag5IO6 (XRD) ([3]; in ddH2O): approximately 99.9%
solid material converted to AgCl (XRD) ([3]; in saline, solid collected at the end of the experiment): approximately 25%
pH in saline ([3]; solution over Ag5IO6 in 0.9% saline): 10
pH in ddH2O ([3]; solution over Ag5IO6 in ddH2O): 8
composition after light exposure (XRD) [4]: 100 % Ag5IO6
